The text below walks through data of US20240208968A1, “ALPHA V BETA 6 AND ALPHA V BETA 1 INTEGRIN INHIBITORS AND USES THEREOF” (DiCE Molecules SV, Inc., priority 2021, published 2024).

A word on the IC50: it is the concentration that gives 50% inhibition.

Assay [1] concerns the target αvβ1 (Homo sapiens, UniProt P05556+P06756). Description: Solid Phase Integrin αvβ1 Assay. Type of assay: binding. The gist of the method: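 Wells coated with 1 µg/mL recombinant TGFb1-LAP and blocked with 2% BSA/TBST, 1 mM MnCl2; αvβ1 (added at 0.2 µg/mL) and compound incubated 90 min at room temperature. Bound integrin detected by streptavidin-HRP (20 min) and TMB after Mn-containing washes; IC50 by four-parameter logistic fit.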

Assay [2] deals with αvβ6 (Homo sapiens, UniProt P06756+P18564). The assay can be described thus: Solid Phase Integrin αvβ6 Assay. Type of assay: binding. Summed up: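 Plates coated with 1 μg/mL recombinant TGFb1-LAP; compounds and αvβ6 (0.2 μg/mL diluted stock) incubated 1 h at room temperature in 2% BSA/TBST with 1 mM MnCl2. Bound integrin detected with streptavidin-HRP and TMB; IC50 from four-parameter logistic fits.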
αvβ6, sequence (P06756 31-992 limits assumed): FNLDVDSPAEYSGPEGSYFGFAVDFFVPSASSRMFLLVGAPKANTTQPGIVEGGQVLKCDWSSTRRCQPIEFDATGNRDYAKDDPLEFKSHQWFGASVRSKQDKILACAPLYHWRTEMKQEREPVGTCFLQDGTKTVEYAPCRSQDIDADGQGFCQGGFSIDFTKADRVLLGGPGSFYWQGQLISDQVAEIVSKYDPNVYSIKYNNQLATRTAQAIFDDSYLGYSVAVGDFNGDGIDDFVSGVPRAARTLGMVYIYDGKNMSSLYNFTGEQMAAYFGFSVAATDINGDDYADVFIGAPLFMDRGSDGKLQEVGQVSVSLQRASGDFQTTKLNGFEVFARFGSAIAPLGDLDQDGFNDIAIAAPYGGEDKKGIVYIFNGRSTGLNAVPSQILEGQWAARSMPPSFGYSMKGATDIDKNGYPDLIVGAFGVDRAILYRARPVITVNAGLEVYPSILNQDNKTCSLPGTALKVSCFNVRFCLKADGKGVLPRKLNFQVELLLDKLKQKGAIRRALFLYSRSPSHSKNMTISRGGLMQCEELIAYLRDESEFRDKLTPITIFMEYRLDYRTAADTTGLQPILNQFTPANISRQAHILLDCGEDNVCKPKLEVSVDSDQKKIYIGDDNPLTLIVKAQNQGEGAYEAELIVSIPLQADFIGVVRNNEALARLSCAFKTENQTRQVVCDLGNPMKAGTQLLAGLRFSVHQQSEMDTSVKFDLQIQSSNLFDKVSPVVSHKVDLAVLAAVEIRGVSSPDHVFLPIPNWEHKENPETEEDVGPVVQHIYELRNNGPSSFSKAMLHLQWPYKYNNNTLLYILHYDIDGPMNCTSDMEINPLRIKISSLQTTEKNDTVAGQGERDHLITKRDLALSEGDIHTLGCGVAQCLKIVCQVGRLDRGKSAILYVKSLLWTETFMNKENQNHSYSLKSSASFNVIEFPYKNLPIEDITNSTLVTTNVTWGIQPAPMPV
αvβ6, sequence (P18564 22-707 limits assumed): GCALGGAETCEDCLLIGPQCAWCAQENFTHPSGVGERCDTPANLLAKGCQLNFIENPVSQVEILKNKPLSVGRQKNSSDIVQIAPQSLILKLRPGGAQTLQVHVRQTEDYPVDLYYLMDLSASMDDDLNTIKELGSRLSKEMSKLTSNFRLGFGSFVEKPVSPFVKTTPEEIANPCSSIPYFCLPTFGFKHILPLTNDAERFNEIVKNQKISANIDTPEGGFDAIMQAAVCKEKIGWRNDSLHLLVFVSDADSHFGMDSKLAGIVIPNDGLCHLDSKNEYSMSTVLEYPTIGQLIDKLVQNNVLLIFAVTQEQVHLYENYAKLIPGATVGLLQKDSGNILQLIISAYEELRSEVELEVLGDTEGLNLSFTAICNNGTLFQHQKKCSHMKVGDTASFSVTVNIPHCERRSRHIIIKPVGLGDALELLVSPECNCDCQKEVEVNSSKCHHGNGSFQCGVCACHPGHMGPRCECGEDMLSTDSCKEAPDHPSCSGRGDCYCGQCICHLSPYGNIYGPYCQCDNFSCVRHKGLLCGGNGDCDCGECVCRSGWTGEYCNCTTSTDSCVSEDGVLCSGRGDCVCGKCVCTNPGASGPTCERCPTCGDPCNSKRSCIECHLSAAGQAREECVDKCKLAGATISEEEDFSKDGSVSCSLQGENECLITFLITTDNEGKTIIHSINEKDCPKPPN

αvβ1, sequence (P06756 31-992 limits assumed): as the sequence (P06756 31-992 limits assumed) above
αvβ1, sequence (P05556 21-728 limits assumed): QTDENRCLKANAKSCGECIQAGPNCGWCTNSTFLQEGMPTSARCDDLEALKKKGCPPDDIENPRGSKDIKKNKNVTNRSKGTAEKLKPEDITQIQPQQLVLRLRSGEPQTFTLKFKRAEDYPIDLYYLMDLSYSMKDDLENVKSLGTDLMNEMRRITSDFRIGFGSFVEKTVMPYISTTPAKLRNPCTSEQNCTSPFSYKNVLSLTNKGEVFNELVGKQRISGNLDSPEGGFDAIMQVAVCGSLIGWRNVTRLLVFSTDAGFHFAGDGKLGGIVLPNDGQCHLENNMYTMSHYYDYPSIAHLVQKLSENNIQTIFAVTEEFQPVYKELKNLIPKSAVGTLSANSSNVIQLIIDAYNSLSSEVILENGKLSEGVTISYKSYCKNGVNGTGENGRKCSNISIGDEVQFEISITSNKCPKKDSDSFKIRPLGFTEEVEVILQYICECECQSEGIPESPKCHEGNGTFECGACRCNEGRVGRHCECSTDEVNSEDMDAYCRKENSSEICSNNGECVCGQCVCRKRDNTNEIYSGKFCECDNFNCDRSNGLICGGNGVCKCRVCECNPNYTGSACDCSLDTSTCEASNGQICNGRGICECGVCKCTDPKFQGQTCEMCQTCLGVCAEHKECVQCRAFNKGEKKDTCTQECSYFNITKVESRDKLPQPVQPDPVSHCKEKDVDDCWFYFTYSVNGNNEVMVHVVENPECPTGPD

In the case of `Cc1cc(C(F)(F)F)nn1-c1cccc([C@@H](CO[C@@H]2CCCN(CCCc3ccc4c(n3)NCCC4)C2)CC(=O)O)c1` [Compound 576], the 50% inhibitory concentration (IC50) in assay [1] and in assay [2] was under 100 nM throughout.

In the case of `Cc1cc(C(F)(F)F)nn1-c1cccc([C@H](CO[C@@H]2CCCN(CCCc3ccc4c(n3)NCCC4)C2)CC(=O)O)c1` [Compound 577], the IC50 in assay [1] and in assay [2] was under 100 nM throughout.

With `CC1(C)CN(c2cc([C@@H](CO[C@@H]3CCCN(CCCc4ccc5c(n4)NCCC5)C3)CC(=O)O)ccc2F)CCO1` [Compound 578], the IC50 in assay [1] and in assay [2] was under 100 nM throughout.

For the compound `Cc1cc([C@@H](CO[C@@H]2CCCN(CCCc3ccc4c(n3)NCCC4)C2)CC(=O)O)cc(N2CCOC(C)(C)C2)c1` [Compound 579], the half-inhibitory concentration (IC50) in assay [1] and in assay [2] was under 100 nM in each case.

For the compound `CC1(C)CN(c2cc([C@H](CO[C@@H]3CCCN(CCCc4ccc5c(n4)NCCC5)C3)CC(=O)O)ccc2F)CCO1` [Compound 580], the IC50 in assay [1] and in assay [2] was under 100 nM in each case.

Consider `Cc1cc([C@H](CO[C@@H]2CCCN(CCCc3ccc4c(n3)NCCC4)C2)CC(=O)O)cc(N2CCOC(C)(C)C2)c1` [Compound 581], for which the IC50 in assay [1] and in assay [2] was 100 to 1000 nM in each case.

As to `C[C@H]1OCCN(c2cccc([C@H](CC(=O)O)NC(=O)[C@@H]3CCCN(CCCc4ccc5c(n4)NCCC5)C3)c2)[C@H]1C` [Compound 582], the concentration for half-maximal inhibition (IC50) in assay [1] and in assay [2] was under 100 nM each time.

As to `C[C@@H]1OCCN(c2cccc([C@H](CC(=O)O)NC(=O)[C@@H]3CCCN(CCCc4ccc5c(n4)NCCC5)C3)c2)[C@@H]1C` [Compound 583], the IC50 in assay [1] and in assay [2] was under 100 nM in each case.

In the case of `C[C@@H]1OCCN(c2cccc([C@H](CC(=O)O)NC(=O)[C@@H]3CCCN(CCCc4ccc5c(n4)NCCC5)C3)c2)[C@H]1C` [Compound 584], the half-inhibitory concentration (IC50) in assay [1] and in assay [2] was under 100 nM in each case.

Consider `C[C@@H]1[C@@H](C)OCCN1c1cccc([C@H](CC(=O)O)NC(=O)[C@@H]2CCCN(CCCc3ccc4c(n3)NCCC4)C2)c1` [Compound 585], for which the IC50 in assay [1] and in assay [2] was under 100 nM each time.

In the case of `Cc1cc(C)n(-c2cccc([C@H](CC(=O)O)NC(=O)[C@@H]3CCCN(CCCc4ccc5c(n4)NCCC5)C3)c2)c1` [Compound 586], the half-inhibitory concentration (IC50) in assay [1] and in assay [2] was under 100 nM throughout.

On to `CC1(C)CN(c2cccc([C@H](CC(=O)O)NC(=O)[C@@H]3CCCN(CCCc4ccc5c(n4)NCCC5)C3)c2)CC(C)(C)C1` [Compound 587], for which the IC50 in assay [1] and in assay [2] was under 100 nM in each case.

For the compound `O=C(NC[C@@H](Nc1ccccc1C1CC(F)(F)C1)C(=O)O)[C@@H]1CCCN(CCCc2ccc3c(n2)NCCC3)C1` [Compound 588], the IC50 in assay [1] and in assay [2] was under 100 nM throughout.

Turning to `O=C(NC[C@@H](Nc1cccc(C2CC(F)(F)C2)c1)C(=O)O)[C@@H]1CCCN(CCCc2ccc3c(n2)NCCC3)C1` [Compound 589], the half-inhibitory concentration (IC50) in assay [1] and in assay [2] was under 100 nM each time.

For `O=C(NC[C@@H](Nc1cccnc1C1CC(F)(F)C1)C(=O)O)[C@@H]1CCCN(CCCc2ccc3c(n2)NCCC3)C1` [Compound 593], the IC50 in assay [1] and in assay [2] was under 100 nM in each case.

For the compound `CC1(C)CN(c2cccc([C@@H](CNC(=O)[C@@H]3CCCN(CCCc4ccc5c(n4)NCCC5)C3)C(=O)O)c2)CCO1` [Compound 595], the IC50 in assay [1] and in assay [2] was under 100 nM throughout.

Turning to `CC1(C)COCCN1c1cccc([C@@H](CNC(=O)[C@@H]2CCCN(CCCc3ccc4c(n3)NCCC4)C2)C(=O)O)c1` [Compound 597], the IC50 in assay [1] and in assay [2] was under 100 nM throughout.

For `CC1(C)CCCN(c2cccc([C@@H](CNC(=O)[C@@H]3CCCN(CCCc4ccc5c(n4)NCCC5)C3)C(=O)O)c2)C1` [Compound 599], the 50% inhibitory concentration (IC50) in assay [1] and in assay [2] was under 100 nM in each case.

Consider `CC1(C)CCN(c2cccc([C@@H](CNC(=O)[C@@H]3CCCN(CCCc4ccc5c(n4)NCCC5)C3)C(=O)O)c2)CC1` [Compound 601], for which the IC50 in assay [1] and in assay [2] was under 100 nM each time.

For the compound `C[C@H]1CN(c2cccc([C@H](CNC(=O)[C@@H]3CCCN(CCCc4ccc5c(n4)NCCC5)C3)C(=O)O)c2)C[C@H](C)O1` [Compound 603], the half-inhibitory concentration (IC50) in assay [1] and in assay [2] was under 100 nM throughout.

Consider `C[C@@H]1CN(c2cccc([C@@H](CNC(=O)[C@@H]3CCCN(CCCc4ccc5c(n4)NCCC5)C3)C(=O)O)c2)C[C@H](C)O1` [Compound 604], for which the IC50 in assay [1] and in assay [2] was under 100 nM in each case.

Consider `C[C@@H]1CN(c2cccc([C@H](CNC(=O)[C@@H]3CCCN(CCCc4ccc5c(n4)NCCC5)C3)C(=O)O)c2)C[C@@H](C)O1` [Compound 605], for which the IC50 in assay [1] and in assay [2] was under 100 nM in each case.

In the case of `CNC(=O)[C@@H]1CN(C(=O)CCCc2ccc3c(c2)NCCC3)C[C@H]1NC(=O)CC(CC(=O)O)c1ccccc1` (stereo partly drawn) [Compound 606], the results for the IC50 in assay [1] and in assay [2] were under 100 nM and 100 to 1000 nM, respectively.

With `CNC(=O)[C@H]1C[C@H](C(=O)N[C@@H](CC(=O)O)c2ccccc2)CN(CCCc2ccc3c(n2)NCCC3)C1` [Compound 607], the IC50 in assay [1] and in assay [2] was under 100 nM in each case.

For the compound `O=C(O)[C@@H](c1ccccc1)[C@@H](O)CO[C@@H]1CCCN(CCCc2ccc3c(n2)NCCC3)C1` [Compound 608], the IC50 in assay [1] and in assay [2] was over 1000 nM each time.

Consider `O=C(O)[C@@H](c1ccccc1)[C@H](O)CO[C@@H]1CCCN(CCCc2ccc3c(n2)NCCC3)C1` [Compound 609], for which the IC50 in assay [1] and in assay [2] was over 1000 nM in each case.

Turning to `O=C(O)C(c1ccccc1)C(O)CO[C@@H]1CCCN(CCCc2ccc3c(n2)NCCC3)C1` (stereo partly drawn) [Compound 610], the half-maximal inhibitory concentration (IC50) in assay [1] and in assay [2] was over 1000 nM in each case.

Turning to `O=C(O)[C@H](c1ccccc1)[C@H](O)CO[C@@H]1CCCN(CCCc2ccc3c(n2)NCCC3)C1` [Compound 611], the concentration for half-maximal inhibition (IC50) in assay [1] and in assay [2] was over 1000 nM throughout.

As to `O=C(O)[C@H](c1ccccc1)[C@@H](O)CO[C@@H]1CCCN(CCCc2ccc3c(n2)NCCC3)C1` [Compound 612], the IC50 in assay [1] and in assay [2] was over 1000 nM in each case.

On to `O=C(O)C[C@H](NC(=O)[C@@H]1CCCN(CCCc2ccc3c(n2)NCCC3)C1)c1ccc2c(c1)OCC2` [Compound 613], for which the IC50 in assay [1] and in assay [2] was under 100 nM throughout.

`O=C(O)C[C@H](NC(=O)[C@@H]1CCCN(CCCc2ccc3c(n2)NCCC3)C1)c1cccc2c1OCO2` [Compound 614]: the IC50 in assay [1] and in assay [2] was under 100 nM in each case.

Turning to `O=C(O)C[C@H](NC(=O)[C@@H]1CCCN(CCCc2ccc3c(n2)NCCC3)C1)c1cccc2c1CCO2` [Compound 615], the IC50 in assay [1] and in assay [2] was under 100 nM each time.

Take `O=C(O)C[C@H](NC(=O)[C@@H]1CCCN(CCCc2ccc3c(n2)NCCC3)C1)c1cnn(-c2ccccc2)c1` [Compound 616]: the concentration for half-maximal inhibition (IC50) in assay [1] and in assay [2] was under 100 nM each time.

`C[C@@H]1CN(c2cccc([C@H](CC(=O)O)NC(=O)[C@@H]3CCCN(CCCc4ccc5c(n4)NCCC5)C3)c2)C[C@H](C)O1` [Compound 617]: the half-inhibitory concentration (IC50) in assay [1] and in assay [2] was under 100 nM each time.

As to `C[C@@H]1CN(c2cccc([C@H](CC(=O)O)NC(=O)[C@@H]3CCCN(CCCc4ccc5c(n4)NCCC5)C3)c2)C[C@@H](C)O1` [Compound 618], the concentration for half-maximal inhibition (IC50) in assay [1] and in assay [2] was under 100 nM each time.

`O=C(NC[C@H](C(=O)O)c1cccc2cn([C@H]3CCC(F)(F)C3)nc12)[C@@H]1CCCN(CCCc2ccc3c(n2)NCCC3)C1` [Compound 619]: the IC50 in assay [1] and in assay [2] was under 100 nM each time.

In the case of `O=C(NC[C@H](C(=O)O)c1cncc(-c2ccccc2)c1)[C@@H]1CCCN(CCCc2ccc3c(n2)NCCC3)C1` [Compound 620], the IC50 in assay [1] and in assay [2] was under 100 nM in each case.

With `O=C(NC[C@H](C(=O)O)c1cccc(-c2ccccc2C(F)(F)F)c1)[C@@H]1CCCN(CCCc2ccc3c(n2)NCCC3)C1` [Compound 621], the IC50 in assay [1] and in assay [2] was under 100 nM throughout.

For `O=C(NC[C@H](C(=O)O)c1ccc(F)c(-c2ccccc2)c1F)[C@@H]1CCCN(CCCc2ccc3c(n2)NCCC3)C1` [Compound 622], the half-maximal inhibitory concentration (IC50) in assay [1] and in assay [2] was 100 to 1000 nM throughout.

As to `O=C(NC[C@H](C(=O)O)c1cccc2cn([C@@H]3CCC(F)(F)C3)nc12)[C@@H]1CCCN(CCCc2ccc3c(n2)NCCC3)C1` [Compound 623], the IC50 in assay [1] and in assay [2] was under 100 nM each time.

As to `O=C(NC[C@@H](C(=O)O)c1cccc2cn([C@H]3CCC(F)(F)C3)nc12)[C@@H]1CCCN(CCCc2ccc3c(n2)NCCC3)C1` [Compound 624], the results for the half-maximal inhibitory concentration (IC50) in assay [1] and in assay [2] were 100 to 1000 nM and over 1000 nM, respectively.

For `O=C(NC[C@@H](C(=O)O)c1cccc(-c2ccccc2C(F)(F)F)c1)[C@@H]1CCCN(CCCc2ccc3c(n2)NCCC3)C1` [Compound 625], the concentration for half-maximal inhibition (IC50) in assay [1] is over 1000 nM; in assay [2], 100 to 1000 nM.

`O=C(NC[C@@H](C(=O)O)c1ccc(F)c(-c2ccccc2)c1F)[C@@H]1CCCN(CCCc2ccc3c(n2)NCCC3)C1` [Compound 626]: the IC50 in assay [1] and in assay [2] was under 100 nM in each case.

Regarding `O=C(NC[C@@H](C(=O)O)c1cncc(-c2ccccc2)c1)[C@@H]1CCCN(CCCc2ccc3c(n2)NCCC3)C1` [Compound 627], the IC50 in assay [1] and in assay [2] was under 100 nM each time.

`O=C(O)C(CNC(=O)[C@@H]1CCCN(CCCc2ccc3c(n2)NCCC3)C1)c1cc(-c2ccccc2)ccn1` (stereo partly drawn) [Compound 628]: the half-inhibitory concentration (IC50) in assay [1] and in assay [2] was under 100 nM throughout.
